The test system of the experiment is finishing Nelore cattle in feedlot. As to the kind of experiment: Animal performance trial: Crina Ruminants and Ronozyme Rumistar for finishing Nelore cattle in feedlot. It is filed as in vivo. The method, then:
The study has been carried out at facilities of Animal Science Department at ESALQ/USP (University of São Paulo), Piracicaba-SP, Brazil. Treatments have been allocated in fifty pens, with 6 animals per pen. Water has been supplied for ad libitum consumption and feed once a day. Cattle have been withheld from feed and water for 16 hours before body weight (BW) assessment at the beginning and at the end of the experiment. After 28 and 56 days body weight (BW) has been assessed to monitor the partial average daily gain. [table] [table]

Experimental findings from US10610575B2, “Method for improving feed digestibility in bovine animals” (DSM IP ASSETS B.V., priority 2015, dated 2020) are described below.

Consider `CC[C@@]1([C@@H]2O[C@@H]([C@H]3O[C@@](O)(CO)[C@H](C)C[C@@H]3C)C[C@@H]2C)CC[C@H]([C@]2(C)CC[C@]3(C[C@H](O)[C@@H](C)[C@@H]([C@@H](C)[C@@H](OC)[C@H](C)C(=O)O)O3)O2)O1` [MONENSIN, Monensin], for which, under “After 59 days”, the “ADG (average daily gain)” value came to 1.342b kg/d; the “DMI (dry matter intake)” value came to 8.63b kg/d; the “FE (feed efficiency), ADG:DMI” value worked out at 0.155b. In addition, where the note is “adaptation period - 28 days”, the “ADG (average daily gain)” value worked out at 1.352b kg/d; the “DMI (dry matter intake)” value worked out at 7.73b kg/d; the “FE (feed efficiency), ADG:DMI” value is 0.177bc.
